Assay [1] deals with Experimental Allergic Encephalomyelitis (EAE). The assay can be described thus: Acute Experimental Allergic Encephalomyelitis mouse model. To be noted: subcutaneous, dosed daily, every 3 days and weekly. It is filed as in vivo, mice. An excerpt: The carboxy terminus of activated Fibrinopeptide A was considered to be the active portion of the peptide, the carboxy terminus was PEGylate (addition of Poly Ethylene Glycol). This molecule was used to perform an EAE study. This study was designed to mimic the study done by Ruhenstroth-Bauer in 1981 utilizing two of these peptides, and showing some albeit mild benefit. The synthetic PEGylated peptide was expected to perform considerably better than the non-PEGylated peptide. Synthetic non-PEGylated peptide A was used as a positive control to compare the PEGylated verses non-PEGylated peptides. The medications were administered subcutaneously, due to this route having some efficacy in the cytokine profiles.
Test article 2 (PEGylated peptide) dosed daily, every 3 days and weekly never even approached statistically significant benefit.
During the first 22 days of the study EAE development in mice treated with test article 1 (daily non-PEGylated peptide A) was very similar to the vehicle-treated mice. […] Disease worsened in test article 1-treated mice on days 27 and 28 and became very similar to disease severity to the mice in the vehicle-treated group.

Another assay relates to Ponto Toro Virus. It is filed as in vivo, mice. To be noted: mouse, in vivo.
A further assay relates to cytokine panels. The assay can be described thus: Cytokine panels for 24 hours after synthetic imf-C3, healthy volunteer. It is filed as in vivo, human. The settings on record: followed for 24 hours. The method, then: After getting back the results of the Ponto Toro test and seeing no results from imf-C3, a healthy volunteer was given synthetic imf-C3 and cytokine panels were followed for 24 hours.

“Also recorded” adds a separate entry of the source. No end group written: not given here. PEG = not defined here

From patent US20110318375A1, “Immunomodulatory Therapeutic Agents” (priority 2009, published 2011) come the findings set out here.

For the substance “PEGylated peptide: activated Fibrinopeptide A with Poly Ethylene Glycol added to the carboxy terminus (ADSGEGDFLAEGGGVR-{PEG}; reading uncertain; UniProt P02671 20-35, looked up)”, the “EAE development / activity versus vehicle-treated mice” value is reported as “little or no response; also recorded: no activity” in assay [1] and “decrease any measurable activity” in assay [1] (listed as PEGylated Fibrinopeptide A).
Take SEETKENERFTV [imf-C3]: the “results of the Ponto Toro test” value in the assay on Ponto Toro Virus is reported as “no results”. For the same substance, the “changes in cytokine panels” value with cytokine panels is “did not demonstrate in any changes”.
